The record followed here is PubChem BioAssay (NCI).

Among the test systems are MDA-N; MOLT-4 leukemia; SW-620 colon; A549 NSCLC; KM12 colon; HOP-92 NSCLC; SF-268 CNS; SK-MEL-5 melanoma; RPMI-8226 leukemia; NCI/ADR-RES ovarian.
Holding throughout (experiment): DTP human tumour cell line panel, 48 h

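Each compound was tested at five concentrations against cells in 96-well plates for 48 hours. The concentration for full growth arrest is given as TGI.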

What is called TGI is the concentration giving total growth inhibition. On to `CC1(C)C(c2ccccc2)=[N+]([O-])C(C)(C)N1O`, for which the TGI in the experiment with MDA-N, in the experiment with MOLT-4 leukemia, in the experiment on SW-620 colon, in the experiment on A549 NSCLC, with KM12 colon and with HOP-92 NSCLC was over 10 µM throughout. Also, the TGI with SF-268 CNS, with SK-MEL-5 melanoma, in the experiment on RPMI-8226 leukemia and in the experiment on NCI/ADR-RES ovarian was over 10 µM each time.
Consider `CC(C)=C[C@@H]1C[C@H](n2cc(C)c(=O)[nH]c2=O)ON1CCO`, for which the TGI in the experiment on MDA-N, in the experiment with MOLT-4 leukemia, in the experiment with SW-620 colon, in the experiment with A549 NSCLC, in the experiment with KM12 colon and with HOP-92 NSCLC was over 100 µM throughout. Besides, the TGI in the experiment with SF-268 CNS, in the experiment with SK-MEL-5 melanoma, with RPMI-8226 leukemia and with NCI/ADR-RES ovarian was over 100 µM throughout.
Regarding `Cc1cc(-c2nc3c(O)cccc3s2)ccc1N`, the TGI is 76.9 µM with MDA-N; over 100 µM in the experiment on MOLT-4 leukemia; over 100 µM with SW-620 colon; 47.9 µM in the experiment on A549 NSCLC; 65 µM in the experiment on KM12 colon; 58.9 µM in the experiment on HOP-92 NSCLC. Further, the TGI was 75.6 µM with SF-268 CNS, over 100 µM in the experiment on SK-MEL-5 melanoma, over 100 µM in the experiment with RPMI-8226 leukemia and 50.4 µM with NCI/ADR-RES ovarian.
On to `Cc1ccccc1OC(C)C(=O)NN1C(=O)CC(=O)N(c2ccc(Cl)cc2)C1=S` (stereo not given), for which the TGI in the experiment on MDA-N is over 100 µM; with MOLT-4 leukemia, over 100 µM; in the experiment on SW-620 colon it was over 100 µM; in the experiment on A549 NSCLC it was over 100 µM; in the experiment with KM12 colon, over 100 µM; in the experiment on HOP-92 NSCLC, 56.1 µM. The TGI is over 100 µM in the experiment on SF-268 CNS, 74.4 µM in the experiment on SK-MEL-5 melanoma, over 100 µM with RPMI-8226 leukemia and over 100 µM in the experiment with NCI/ADR-RES ovarian.
With `CSCCC(NCc1c(O)ccc2c(-c3ccccc3)cc(=O)oc12)C(=O)O` (stereo not given), the TGI with MDA-N, in the experiment on MOLT-4 leukemia, in the experiment with SW-620 colon, in the experiment with A549 NSCLC, in the experiment on KM12 colon and in the experiment with HOP-92 NSCLC was over 100 µM each time. Besides, the TGI in the experiment on SF-268 CNS, with SK-MEL-5 melanoma, with RPMI-8226 leukemia and in the experiment with NCI/ADR-RES ovarian was over 100 µM throughout.
As to `Cc1ccc(S(=O)(=O)Oc2cc(N)c3c(n2)CCC3)cc1`, the TGI in the experiment on MDA-N, with MOLT-4 leukemia, in the experiment on SW-620 colon, with A549 NSCLC, with KM12 colon and with HOP-92 NSCLC was over 100 µM throughout. For the same molecule, the TGI in the experiment with SF-268 CNS, in the experiment with SK-MEL-5 melanoma, in the experiment with RPMI-8226 leukemia and in the experiment with NCI/ADR-RES ovarian was over 100 µM in each case.
`C=C(Cl)/C(=C\Cl)CCC(Br)C(C)C` (stereo not given): the TGI in the experiment with MDA-N was over 100 µM; with MOLT-4 leukemia, over 100 µM; in the experiment with SW-620 colon it was 37.9 µM; in the experiment with A549 NSCLC, over 100 µM; in the experiment on KM12 colon, over 100 µM; in the experiment on HOP-92 NSCLC, over 100 µM. Further, the TGI in the experiment with SF-268 CNS, in the experiment on SK-MEL-5 melanoma, in the experiment on RPMI-8226 leukemia and in the experiment with NCI/ADR-RES ovarian was over 100 µM each time.
`O=c1cc(/C=C/c2ccc(O)c(O)c2)oc(/C=C/c2ccc(O)c(O)c2)c1`: the TGI with MDA-N is 16.6 µM; in the experiment on MOLT-4 leukemia it was 19.9 µM; in the experiment on SW-620 colon, over 26.8 µM; with A549 NSCLC, 37.1 µM; in the experiment on KM12 colon, 16 µM; in the experiment on HOP-92 NSCLC it was 8.78 µM. The TGI with SF-268 CNS was 13.2 µM; in the experiment with SK-MEL-5 melanoma it was 13.2 µM; in the experiment on RPMI-8226 leukemia it was over 27.4 µM; in the experiment on NCI/ADR-RES ovarian it was over 65.3 µM.
As to `O=C(O)C1CC(c2ccc(F)cc2)=Nc2ccc(F)cc2S1` (stereo not given), the TGI in the experiment with MDA-N, in the experiment with MOLT-4 leukemia, with SW-620 colon, with A549 NSCLC, with KM12 colon and in the experiment with HOP-92 NSCLC was over 100 µM in each case. Besides, the TGI with SF-268 CNS, in the experiment on SK-MEL-5 melanoma, in the experiment with RPMI-8226 leukemia and in the experiment on NCI/ADR-RES ovarian was over 100 µM in each case.
Take `O=C1/C(=C/c2ccccc2S)N=C(c2ccccc2)N1c1nc2ccc(Sc3ccccc3)cc2[nH]1`: the TGI in the experiment with MDA-N is 34.4 µM; in the experiment with MOLT-4 leukemia, over 100 µM; with SW-620 colon it was over 100 µM; with A549 NSCLC, over 100 µM; in the experiment with KM12 colon, over 100 µM; in the experiment with HOP-92 NSCLC it was over 100 µM. The TGI with SF-268 CNS is over 100 µM; in the experiment on SK-MEL-5 melanoma it was 38.6 µM; with RPMI-8226 leukemia, 65.7 µM; in the experiment with NCI/ADR-RES ovarian it was 50.4 µM.
As for `CCOC1CC(=O)c2c(Br)sc(Br)c21` (stereo not given), the TGI in the experiment on MDA-N was determined as 49.6 µM; with MOLT-4 leukemia it was 35.1 µM; in the experiment on SW-620 colon it was 47.1 µM; with A549 NSCLC, 95.1 µM; in the experiment with KM12 colon it was 37.2 µM; in the experiment on HOP-92 NSCLC, 35.3 µM. The TGI with SF-268 CNS is 80.8 µM; in the experiment with SK-MEL-5 melanoma it was over 100 µM; in the experiment with RPMI-8226 leukemia, 49.6 µM; with NCI/ADR-RES ovarian, over 100 µM.
For the molecule `O=C(Nc1cccc2cnccc12)c1cc2c(cc1Cl)Sc1nccn1S2(=O)=O`, the TGI with MDA-N was 23.7 µM; in the experiment on MOLT-4 leukemia, 59.4 µM; in the experiment on SW-620 colon it was 50.8 µM; in the experiment with A549 NSCLC it was over 100 µM; with KM12 colon, 21.9 µM; in the experiment on HOP-92 NSCLC it was 59.4 µM. Moreover, the TGI in the experiment with SF-268 CNS stood at 42.2 µM; in the experiment with SK-MEL-5 melanoma, 26.2 µM; with RPMI-8226 leukemia it was 38.6 µM; in the experiment with NCI/ADR-RES ovarian, 57.8 µM.
In the case of `O=C1NCCCc2nonc21`, the TGI with MDA-N, in the experiment on MOLT-4 leukemia, with SW-620 colon, with A549 NSCLC, in the experiment with KM12 colon and in the experiment with HOP-92 NSCLC was over 100 µM in each case. Also, the TGI in the experiment on SF-268 CNS, with SK-MEL-5 melanoma, in the experiment on RPMI-8226 leukemia and with NCI/ADR-RES ovarian was over 100 µM throughout.
As to `Cc1cc(C)c2c(=O)n(CN3CC4Nc5ccccc5C4C3)sc2n1` (stereo not given), the TGI in the experiment with MDA-N is 44.3 µM; in the experiment with MOLT-4 leukemia, 95.3 µM; in the experiment with SW-620 colon it was 63.7 µM; in the experiment on A549 NSCLC, over 100 µM; in the experiment on KM12 colon it was over 100 µM; in the experiment on HOP-92 NSCLC it was over 100 µM. Besides, the concentration for total growth inhibition (TGI) in the experiment with SF-268 CNS was 54.1 µM; in the experiment with SK-MEL-5 melanoma, over 100 µM; with RPMI-8226 leukemia, over 100 µM; in the experiment with NCI/ADR-RES ovarian, over 100 µM.
As to `COC(=O)c1ccccc1/C=C1/Cc2ccccc2C1=O`, the TGI was over 100 µM in the experiment with MDA-N; 78.5 µM in the experiment on MOLT-4 leukemia; 85.5 µM with SW-620 colon; over 100 µM in the experiment on A549 NSCLC; 96.5 µM in the experiment with KM12 colon; over 100 µM with HOP-92 NSCLC. In addition, the TGI in the experiment with SF-268 CNS was over 100 µM; with SK-MEL-5 melanoma, 62.8 µM; with RPMI-8226 leukemia it was 49.5 µM; with NCI/ADR-RES ovarian, over 100 µM.
As to `CC(=O)OC(C)c1cc2c(s1)C(=O)c1sccc1C2=O` (stereo not given), the TGI with MDA-N was 0.0338 µM; in the experiment on MOLT-4 leukemia it was over 23.6 µM; in the experiment with SW-620 colon it was over 100 µM; in the experiment with A549 NSCLC it was 5.29 µM; with KM12 colon, 3.36 µM; in the experiment with HOP-92 NSCLC, 16.7 µM. The TGI came out at 4.09 µM with SF-268 CNS, 0.32 µM in the experiment on SK-MEL-5 melanoma, 4.78 µM in the experiment with RPMI-8226 leukemia and 5.08 µM with NCI/ADR-RES ovarian.
As to `CCCCn1c2c(n(CCCC)c1=S)-c1c(n(CCCC)c(=S)n1CCCC)S[Se][Se]S2`, the TGI in the experiment with MDA-N is 36.3 µM; in the experiment with MOLT-4 leukemia it was over 37.2 µM; in the experiment with SW-620 colon, 6.64 µM; in the experiment with A549 NSCLC, over 88.7 µM; with KM12 colon, over 53.5 µM; with HOP-92 NSCLC it was 9.51 µM. In addition, the TGI was over 83.4 µM with SF-268 CNS, 19.6 µM in the experiment on SK-MEL-5 melanoma, over 35.3 µM with RPMI-8226 leukemia and 53 µM in the experiment on NCI/ADR-RES ovarian.
Consider `COc1ccc(/C(=N/O)c2ccccc2-c2nc3ccccc3c(=O)n2-c2ccc(S(=O)(=O)Nc3ncccn3)cc2)cc1C`, for which the total growth inhibition concentration (TGI) in the experiment with MDA-N was over 31.6 µM; with MOLT-4 leukemia, 23.8 µM; in the experiment on SW-620 colon it was over 31.6 µM; with A549 NSCLC, over 31.6 µM; with KM12 colon, over 31.6 µM; in the experiment on HOP-92 NSCLC, 30.4 µM. For the same molecule, the TGI with SF-268 CNS was over 31.6 µM; with SK-MEL-5 melanoma it was 25.4 µM; with RPMI-8226 leukemia it was 42.9 µM; in the experiment with NCI/ADR-RES ovarian it was over 31.6 µM.
As for `O=c1c2ncn(C3CC(O)C(CO)O3)c2nnn1Cc1ccccc1[N+](=O)[O-]` (stereo not given), the TGI with MDA-N, in the experiment on MOLT-4 leukemia, in the experiment with SW-620 colon, in the experiment with A549 NSCLC, with KM12 colon and in the experiment on HOP-92 NSCLC was over 100 µM each time. Moreover, the TGI with SF-268 CNS, in the experiment on SK-MEL-5 melanoma, with RPMI-8226 leukemia and with NCI/ADR-RES ovarian was over 100 µM each time.
`O=C1C(c2c(O)[nH]c3ccc(S(=O)(=O)O)cc23)=Nc2ccccc21`: the TGI with MDA-N, in the experiment with MOLT-4 leukemia, in the experiment with SW-620 colon, in the experiment on A549 NSCLC, with KM12 colon and in the experiment with HOP-92 NSCLC was over 100 µM in each case. The TGI in the experiment with SF-268 CNS, in the experiment on SK-MEL-5 melanoma, in the experiment on RPMI-8226 leukemia and in the experiment with NCI/ADR-RES ovarian was over 100 µM in each case.
As to `O=C(O)[C@@H]1C[C@@H](O)CN1C(=O)OCc1ccccc1`, the total growth inhibition concentration (TGI) in the experiment with MDA-N, with MOLT-4 leukemia, with SW-620 colon, in the experiment on A549 NSCLC, in the experiment on KM12 colon and with HOP-92 NSCLC was over 100 µM each time. The TGI with SF-268 CNS, in the experiment on SK-MEL-5 melanoma, with RPMI-8226 leukemia and with NCI/ADR-RES ovarian was over 100 µM in each case.
